For test [1], the target named is T1, flag-tagged HIF1α (AA 786-826) / His6-tagged p300 (AA 323-423) complex (Homo sapiens, UniProt Q09472).
T1 construct: His6-tagged p300 (AA 323-423); made in house; host or cells: E. coli (pETDuet vector)
Put plainly: HIF1α p300 displacement assay (TR FRET, +CHAPS). Conditions: read-out: IC50 (nM) (HIF1α_p300 Displacement + CHAPS). The class given is binding. An outline of the steps: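 The co-expressed flag-HIF1α (786-826)/His6-p300 (323-423) complex, purified from E. coli with 0.1 mM ZnSO4, was used at 300 nM final with competitor peptides for 1 h at room temperature. Buffer was 150 mM NaCl, 20 mM HEPES pH 7.4, 7.5 mM CHAPS and 1 mM DTT. Anti-Flag-K (0.5 μM) and anti-His-D2 (4 nM) were then added for 2 h, and IC50s were fitted from the TR-FRET ratio.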
A general note: TR-FRET usually uses a lanthanide donor and a delayed reading to cut background.

In the next test the test system is HRE-bla ME-180 cells. In words: Reporter gene assay (HRE-bla ME-180 HIF reporter, GeneBLAzer). In kind it is cell-based, human. Conditions: for EC50: 24 hour normoxia. In a few lines:
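A FRET β-lactamase readout of HIF transcription was used. After compound treatment in 0.3% DMSO/media under normoxic conditions, 20 μl of 6× LiveBLAzer-FRET B/G (CCF4-AM) substrate was added. Plates sat 3 hr at room temperature in the dark and were read at 409 Ex/460Em and 409Ex/530Em on a Synergy 2. Inhibition was compared against DMSO vehicle controls, with chetomin as positive control.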
A general note: A reporter such as luciferase makes a cellular process visible.

SMILES strings stand for the structures. Bridge positions count the residues as written; N and C are the ends. Square brackets hold non-standard residues; d marks the D form. Peptide text beside a SMILES is read from it. R8 = C=CCCCCCC[C@@](C)(N)C(=O)O; Cba = N[C@@H](CC1CCC1)C(=O)O; S5 = C=CCCC[C@](C)(N)C(=O)O; Nle = CCCC[C@H](N)C(=O)O

What is called IC50 is the concentration that gives 50% inhibition. One may read the EC50 as the midpoint of the concentration-response curve. Regarding `CCCC[C@H](NC(=O)[C@H](CCC(=O)O)NC(=O)[C@@H](NC(=O)[C@@H](NC(=O)[C@H](CC(C)C)NC(=O)[C@]1(C)CCCC=CCCC[C@](C)(NC(=O)[C@H](CCC(=O)O)NC(=O)[C@H](CC(=O)O)NC(=O)[C@@H](NC(=O)[C@H](Cc2ccccc2)NC(C)=O)[C@@H](C)CC)C(=O)N[C@@H](C(C)C)C(=O)N[C@@H](CC(C)C)C(=O)N[C@@H](CCCC)C(=O)N1)C(C)C)[C@@H](C)CC)C(=O)NCC(=O)N[C@@H](CC(C)C)C(=O)N[C@@H](CC(=O)O)C(=O)N[C@@H](CCCNC(=N)N)C(=O)N[C@H](C(=O)N[C@@H](CCCCN)C(=O)N[C@@H](CCC(=O)O)C(=O)N[C@@H](CC(C)C)C(=O)N1CCC[C@H]1C(=O)N[C@@H](CCC(=O)O)C(=O)N[C@@H](CC(C)C)C(=O)N[C@@H](Cc1c[nH]c2ccccc12)C(=O)N[C@@H](CC(C)C)C(N)=O)[C@@H](C)CC` [SP-105] (Ac-FIDE[S5]VL[Nle][S5]LVIE[Nle]GLDRIKELPELWL-NH2; staple 5-9), the IC50 in test [1] is no more than 200 nM. Also, the EC50 in the test with HRE-bla ME-180 cells was greater than 30 µM.
On to `CCCC[C@H](NC(=O)[C@H](CCCNC(=N)N)NC(=O)[C@H](CC(=O)O)NC(=O)[C@H](CC(C)C)NC(=O)[C@H](C)NC(=O)[C@H](CCCC)NC(=O)[C@H](C)NC(=O)[C@@H](NC(=O)[C@@H](NC(=O)[C@H](CC(C)C)NC(=O)[C@]1(C)CCCC=CCCC[C@](C)(NC(=O)[C@H](CCC(=O)O)NC(=O)[C@H](CC(=O)O)NC(=O)[C@@H](NC(=O)[C@H](Cc2ccccc2)NC(C)=O)[C@@H](C)CC)C(=O)N[C@@H](C(C)C)C(=O)N[C@@H](CC(C)C)C(=O)N[C@@H](CCCC)C(=O)N1)C(C)C)[C@@H](C)CC)C(N)=O` [SP-125] (Ac-FIDE[S5]VL[Nle][S5]LVIA[Nle]ALDR[Nle]-NH2; staple 5-9), for which, in test [1], the IC50 fell in the range of 200 to 400 nM. Besides, in the test on HRE-bla ME-180 cells, the “18 h Avg % max inhibition at top conc (HIF Rptr-24 hrs normoxia) (μM)” value (shortened to “18 h Avg % max inhibition at top conc”) is reported as “+ (<10: +)” and the EC50 is greater than 30 µM.
Consider `CC[C@H](C)[C@H](NC(=O)[C@H](Cc1ccccc1)NC(C)=O)C(=O)N[C@H](C(=O)N[C@@H](CCC(=O)O)C(=O)N[C@@H](CCC(=O)O)C(=O)N[C@H](C(=O)N[C@@H](CC(C)C)C(=O)N[C@@H](CCSC)C(=O)N[C@@]1(C)CCCC=CCCC[C@@](C)(C(=O)N[C@@H](CCSC)C(=O)N[C@@H](C)C(=O)N[C@@H](CC(C)C)C(N)=O)NC(=O)[C@H]([C@@H](C)CC)NC(=O)[C@H](C(C)C)NC(=O)[C@H](CC(C)C)NC1=O)C(C)C)[C@@H](C)O` [SP-231] (Ac-FITEEVLM[S5]LVI[S5]MAL-NH2; staple 9-13), for which the IC50 in test [1] was greater than 700 nM. Further, in the test with HRE-bla ME-180 cells, the “18 h Avg % max inhibition at top conc” value was “+ (<10: +)” and the EC50 was greater than 30 µM.
In the same order, the values of `CCCC[C@H](NC(=O)[C@H](CCC(=O)O)NC(=O)[C@@H](NC(=O)[C@@H](NC(=O)[C@H](CC(N)=O)NC(=O)[C@]1(C)CCCC=CCCC[C@](C)(NC(=O)[C@H](C)NC(=O)[C@H](CC(=O)O)NC(=O)[C@@H](NC(=O)[C@H](Cc2ccccc2)NC(C)=O)[C@@H](C)CC)C(=O)N[C@@H]([C@@H](C)O)C(=O)N[C@@H](CC(C)C)C(=O)N[C@@H](CCCC)C(=O)N1)C(C)C)[C@@H](C)CC)C(=O)N[C@@H](C)C(=O)N[C@@H](CC(C)C)C(N)=O` [SP-151] (Ac-FIDA[S5]TL[Nle][S5]NVIE[Nle]AL-NH2; staple 5-9) are 400 to 700 nM, “++++ (≥50: ++++)” and no more than 5 µM.
In the same order, the values of `CCCC[C@H](NC(=O)[C@H](C)NC(=O)[C@H](C)NC(=O)[C@H](CCCC)NC(=O)[C@H](C)NC(=O)[C@H](CCCC)NC(=O)[C@H](CC(C)C)NC(=O)[C@@H](NC(=O)[C@@H](NC(=O)[C@H](CC(C)C)NC(=O)[C@]1(C)CCCC=CCCC[C@](C)(NC(=O)[C@H](CCC(=O)O)NC(=O)[C@H](CC(=O)O)NC(=O)[C@@H](NC(=O)[C@H](Cc2ccccc2)NC(C)=O)[C@@H](C)CC)C(=O)N[C@@H](C(C)C)C(=O)N[C@@H](CC(C)C)C(=O)N[C@@H](CCCC)C(=O)N1)C(C)C)[C@@H](C)CC)C(N)=O` [SP-126] (Ac-FIDE[S5]VL[Nle][S5]LVIL[Nle]A[Nle]AA[Nle]-NH2; staple 5-9) are 200 to 400 nM, “++++ (≥50: ++++)” and 15 to 30 µM.
Taken in the same sequence, the figures for `CC[C@H](C)[C@H](NC(=O)[C@H](Cc1ccccc1)NC(C)=O)C(=O)N[C@@H](CC(=O)O)C(=O)N[C@@H](CCC(N)=O)C(=O)N[C@@H](CCC(=O)O)C(=O)N[C@H](C(=O)N[C@@H](CC(C)C)C(=O)N[C@@H](CCSC)C(=O)N[C@@]1(C)CCCC=CCCC[C@@](C)(C(=O)N[C@@H](CCSC)C(=O)N[C@@H](C)C(=O)N[C@@H](CC(C)C)C(N)=O)NC(=O)[C@H]([C@@H](C)CC)NC(=O)[C@H](C(C)C)NC(=O)[C@H](CC(C)C)NC1=O)C(C)C` [SP-233] (Ac-FIDQEVLM[S5]LVI[S5]MAL-NH2; staple 9-13) were 400 to 700 nM, “+++ (≤25 but <50: +++)” and 15 to 30 µM.
For `CCCC[C@@H]1NC(=O)[C@H](CC(C)C)NC(=O)[C@H](C(C)C)NC(=O)[C@@](C)(NC(=O)[C@H](CCC(=O)O)NC(=O)[C@H](CC(=O)O)NC(=O)[C@@H](NC(=O)[C@H](Cc2ccccc2)NC(C)=O)[C@@H](C)CC)CCCC=CCCCC2(CCCC=CCCC[C@](C)(C(=O)N[C@@H](CCCC)C(=O)N[C@@H](C)C(=O)N[C@@H](CC(C)C)C(N)=O)NC(=O)[C@H]([C@@H](C)CC)NC(=O)[C@H](C(C)C)NC(=O)[C@H](CCCNC(=N)N)NC2=O)NC1=O` (stereo partly shown) [SP-209], the IC50 in test [1] is greater than 700 nM. Also, in the test on HRE-bla ME-180 cells, the “18 h Avg % max inhibition at top conc” value is given as “++ (≤10 but <25: ++)” and the EC50 is greater than 30 µM.
In the same order, the values of `CCCC[C@H](NC(=O)[C@H](C)NC(=O)[C@]1(C)CCCC=CCCCCCC[C@@](C)(NC(=O)[C@H](CCC(=O)O)NC(=O)[C@H](C)NC(=O)[C@@H](NC(=O)[C@H](Cc2ccccc2)NC(C)=O)[C@@H](C)CC)C(=O)N[C@@H](C(C)C)C(=O)N[C@@H](CC(C)C)C(=O)N[C@@H](CCCC)C(=O)N[C@@H](CO)C(=O)N[C@@H](CC(C)C)C(=O)N[C@@H](C(C)C)C(=O)N1)C(=O)N[C@@H](C)C(=O)N[C@@H](CC(C)C)C(=O)N[C@@H](CC(=O)O)C(=O)N[C@@H](C)C(=O)N[C@H](C(N)=O)[C@@H](C)CC` [SP-193] (Ac-FIAE[R8]VL[Nle]SLV[S5]A[Nle]ALDAI-NH2; staple 5-12) are 400 to 700 nM, “+ (<10: +)” and greater than 30 µM.
Taken in the same sequence, the figures for `CCCC[C@H](NC(=O)[C@H](CCCNC(=N)N)NC(=O)[C@@H](NC(=O)[C@@H](NC(=O)[C@H](CC(C)C)NC(=O)[C@]1(C)CCCC=CCCC[C@](C)(NC(=O)[C@H](CCC(=O)O)NC(=O)[C@H](CC(=O)O)NC(=O)[C@@H](NC(=O)[C@H](Cc2ccccc2)NC(C)=O)[C@@H](C)CC)C(=O)N[C@@H](C(C)C)C(=O)N[C@@H](CC(C)C)C(=O)N[C@@H](CCCC)C(=O)N1)C(C)C)[C@@H](C)CC)C(=O)N[C@@H](C)C(=O)N[C@@H](CC(C)C)C(N)=O` [SP-157] (Ac-FIDE[S5]VL[Nle][S5]LVIR[Nle]AL-NH2; staple 5-9) were greater than 700 nM, “+ (<10: +)” and greater than 30 µM.
`CCCC[C@H](NC(=O)[C@H](C)NC(=O)[C@@H](NC(=O)[C@@H](NC(=O)[C@H](CC(C)C)NC(=O)[C@]1(C)CCCC=CCCC[C@](C)(NC(=O)[C@H](CCC(=O)O)NC(=O)[C@H](C)NC(=O)[C@@H](NC(=O)[C@H](Cc2ccccc2)NC(C)=O)[C@@H](C)CC)C(=O)N[C@@H](C(C)C)C(=O)N[C@@H](CC(C)C)C(=O)N[C@@H](CCCC)C(=O)N1)C(C)C)[C@@H](C)CC)C(=O)N[C@@H](C)C(=O)N[C@@H](CC(C)C)C(=O)N[C@@H](CC(=O)O)C(=O)N[C@@H](C)C(=O)N[C@H](C(N)=O)[C@@H](C)CC` [SP-121] (Ac-FIAE[S5]VL[Nle][S5]LVIA[Nle]ALDAI-NH2; staple 5-9): the IC50 in test [1] was 400 to 700 nM. In the test with HRE-bla ME-180 cells, the EC50 is greater than 30 µM.
`CCCC[C@@H]1NC(=O)[C@H](CC(C)C)NC(=O)[C@H]([C@@H](C)O)NC(=O)[C@@](C)(NC(=O)[C@H](C)NC(=O)[C@H](CC(=O)O)NC(=O)[C@@H](NC(=O)[C@H](Cc2ccccc2)NC(C)=O)[C@@H](C)CC)CCCC=CCCCC2(CCCC=CCCC[C@](C)(C(=O)N[C@@H](CCCC)C(=O)N[C@@H](C)C(=O)N[C@@H](CC(C)C)C(N)=O)NC(=O)[C@H]([C@@H](C)CC)NC(=O)[C@H](C(C)C)NC(=O)[C@H](CO)NC2=O)NC1=O` (stereo partly shown) [SP-214]: the IC50 in test [1] was greater than 700 nM. Also, in the test with HRE-bla ME-180 cells, the “18 h Avg % max inhibition at top conc” value is listed as “+++ (≤25 but <50: +++)” and the EC50 is greater than 30 µM.
Turning to `CC[C@H](C)[C@H](NC(=O)[C@H](Cc1ccccc1)NC(C)=O)C(=O)N[C@@H](CC(=O)O)C(=O)N[C@@H](CCC(=O)O)C(=O)N[C@@H](CCC(=O)O)C(=O)N[C@H](C(=O)N[C@@H](CC(C)C)C(=O)N[C@@H](CCSC)C(=O)N[C@@]1(C)CCCC=CCCC[C@@](C)(C(=O)N[C@@H](CCSC)C(=O)N[C@@H](C)C(=O)N[C@@H](CC2CCC2)C(N)=O)NC(=O)[C@H]([C@@H](C)CC)NC(=O)[C@H](C(C)C)NC(=O)[C@H](CC(C)C)NC1=O)C(C)C` [SP-237] (Ac-FIDEEVLM[S5]LVI[S5]MA[Cba]-NH2; staple 9-13), the IC50 in test [1] is greater than 700 nM. In the test with HRE-bla ME-180 cells, the “18 h Avg % max inhibition at top conc” value is “+++ (≤25 but <50: +++)” and the EC50 was greater than 30 µM.
